Patent publication US20240408088A1, “PYRAZOLE DERIVATIVE, AND PREPARATION METHOD THEREFOR AND USE THEREOF IN MEDICINE” (Abbisko Therapeutics Co., Ltd., priority 2021, published 2024)
Like-named read-outs stand apart in the source and are kept apart here.

Tested on: HCT 116 MTAP knockout cells
Assay: Human colon cancer HCT116 cell proliferation inhibition test (MTAP knockout cells, CellTiter-Glo, 6 days)
Assay type: cell-based
Experimental: • 1. HCT 116 MTAP knockout and MTAP wild-type cells were plated in 96-well flat bottom 5 plates, and cultured overnight with McCoy's 5A medium containing […]+1% penicillin-streptomycin at 37° C. and 5% CO2. • 2. On the next day, the compound was dissolved with DMSO, diluted with DMSO and medium successively and transferred to the cell plate. The final concentration of the compound was 10 μM, the compound was diluted 4 times, with 9 concentration gradients, and DMSO control was added. • 3. Cells that have not been treated with the compound were removed. CellTiter-Glo Luminescent Cell Viability Assay (Promega) was used to detect cell viability, the operation was performed with reference to the package insert of the kit, and then the cell plate was placed on EnVision Multilabel Reader to detect the cold light signal. • 4. Meanwhile, the cell plate treated with the compound was cultured at 37° C. and 5% CO2 for 6 consecutive days. • 5. Then, CellTiter-Glo was also used to detect cell viability. • 6. Finally, the four-parameter dose-response curve module of GraphPad Prism v 9.2.0 software was used to plot the dose-response curve and calculate the IC50 for proliferation inhibition (unit: nM).

SMILES | IC50 (Homo sapiens, HCT-116, 144 h) [µM] | IC50 [µM]
C#Cc1cc(-c2cnn(C)c2-c2c(F)c(Cl)cc(N3CCCC3)c2C#N)cc2c(CN)n[nH]c(=O)c12 [Example 10, 2-(4-(4-(aminomethyl)-8-ethynyl-1-oxo-1,2-dihydrophthalazin-6-yl)-1-methyl-1H-pyrazol-5-yl)-4-chloro-3-fluoro-6-(pyrrolidin-1-yl)benzonitrile] | 0.012 | –
Cn1ncc(-c2ccc3c(=O)[nH]nc(CN)c3c2)c1-c1c(F)c(N2CCC2)cc(OC2CC2)c1C#N [Example 17, 2-(4-(4-(aminomethyl)-1-oxo-1,2-dihydrophthalazin-6-yl)-1-methyl-1H-pyrazol-5-yl)-4-(azetidin-1-yl)-6-cyclopropoxy-3-fluorobenzonitrile] | 0.113 | –
CC1CCCN1c1cc(Cl)c(F)c(-c2c(-c3ccc4c(=O)[nH]nc(CN)c4c3)cnn2C)c1C#N (centres unmarked) [Example 20, 2-(4-(4-(aminomethyl)-1-oxo-1,2-dihydrophthalazin-6-yl)-1-methyl-1H-pyrazol-5-yl)-4-chloro-3-fluoro-6-(2-methylpyrrolidin-1-yl)benzonitrile] | 0.061 | –
Cn1ncc(-c2ccc3c(=O)[nH]nc(CN)c3c2)c1-c1c(F)c(Cl)cc(OC2CC(F)(F)C2)c1C#N [Example 37, 2-(4-(4-(aminomethyl)-1-oxo-1,2-dihydrophthalazin-6-yl)-1-methyl-1H-pyrazol-5-yl)-4-chloro-6-(3,3-difluorocyclobutoxy)-3-fluorobenzonitrile] | 0.133 | –
Cn1ncc(-c2ccc3c(=O)[nH]nc(CN)c3c2)c1-c1c(F)c(N2CCOCC2)cc(OC2CC2)c1C#N [Example 15, 2-(4-(4-(aminomethyl)-1-oxo-1,2-dihydrophthalazin-6-yl)-1-methyl-1H-pyrazol-5-yl)-6-cyclopropoxy-3-fluoro-4-morpholinobenzonitrile] | 0.1 | –
Cn1ncc(-c2ccc3c(=O)[nH]nc(CN)c3c2)c1-c1c(F)c(Cl)cc(N2C3CCC2CC3)c1C#N [Example 21, 2-(4-(4-(aminomethyl)-1-oxo-1,2-dihydrophthalazin-6-yl)-1-methyl-1H-pyrazol-5-yl)-6-(7-azabicyclo[2.2.1]heptan-7-yl)-4-chloro-3-fluorobenzonitrile] | 0.161 | –
Cn1ncc(-c2ccc3c(=O)[nH]nc(CN)c3c2)c1-c1c(F)c(Cl)cc(N2CCCCC2)c1C#N [Example 22, 2-(4-(4-(aminomethyl)-1-oxo-1,2-dihydrophthalazin-6-yl)-1-methyl-1H-pyrazol-5-yl)-4-chloro-3-fluoro-6-(piperidin-1-yl)benzonitrile] | 0.116 | –
Cn1ncc(-c2cnc3c(=O)[nH]nc(CN)c3c2)c1-c1c(F)cc2ccccc2c1C#N [Example 12, 2-(4-(5-(aminomethyl)-8-oxo-7,8-dihydropyrido[2,3-d]pyridazin-3-yl)-1-methyl-1H-pyrazol-5-yl)-3-fluoro-1-naphthalenenitrile] | 1.97 | –
C#Cc1cc(-c2cnn(C)c2-c2c(F)c(Cl)cc(OC3CC3)c2C#N)cc2c(CN)n[nH]c(=O)c12 [Example 7, 2-(4-(4-(aminomethyl)-8-ethynyl-1-oxo-1,2-dihydrophthalazin-6-yl)-1-methyl-1H-pyrazol-5-yl)-4-chloro-6-cyclopropoxy-3-fluorobenzonitrile] | 0.027 | –
Cn1ncc(-c2cc(C#N)c3c(=O)[nH]nc(CN)c3c2)c1-c1c(F)cc2ccccc2c1C#N (atropisomer, axis not shown; (P)) [Example 4, (P)-1-(aminomethyl)-7-(5-(1-cyano-3-fluoronaphthalen-2-yl)-1-methyl-1H-pyrazol-4-yl)-4-oxo-3,4-dihydrophthalazine-5-carbonitrile] | – | 0.188
Cn1ncc(-c2cc(C#N)c3c(=O)[nH]nc(CN)c3c2)c1-c1c(F)cc2ccccc2c1C#N (atropisomer, axis not shown; (M)) [Example 5, (M)-1-(aminomethyl)-7-(5-(1-cyano-3-fluoronaphthalen-2-yl)-1-methyl-1H-pyrazol-4-yl)-4-oxo-3,4-dihydrophthalazine-5-carbonitrile] | – | 0.016
Cn1ncc(-c2cc(-c3ccccc3)c3c(=O)[nH]nc(CN)c3c2)c1-c1c(F)c(Cl)cc(OC2CC2)c1C#N [Example 13, 2-(4-(4-(aminomethyl)-1-oxo-8-phenyl-1,2-dihydrophthalazin-6-yl)-1-methyl-1H-pyrazol-5-yl)-4-chloro-6-cyclopropoxy-3-fluorobenzonitrile] | 0.122 | –

Continued, values first:

IC50 (Homo sapiens, HCT-116, 144 h) [µM] | IC50 [µM] | SMILES
0.057 | – | Cn1ncc(-c2ccc3c(=O)[nH]nc(CN)c3c2)c1-c1c(F)c(Cl)cc(N2CCC3(CC2)CC3(F)F)c1C#N [Example 33, 2-(4-(4-(aminomethyl)-1-oxo-1,2-dihydrophthalazin-6-yl)-1-methyl-1H-pyrazol-5-yl)-4-chloro-6-(1,1-difluoro-6-azaspiro[2.5]octan-6-yl)-3-fluorobenzonitrile]
0.229 | – | CN(C)C1CN(c2cc(OC3CC3)c(C#N)c(-c3c(-c4ccc5c(=O)[nH]nc(CN)c5c4)cnn3C)c2F)C1 [Example 24, 2-(4-(4-(aminomethyl)-1-oxo-1,2-dihydrophthalazin-6-yl)-1-methyl-1H-pyrazol-5-yl)-6-cyclopropoxy-4-(3-(dimethylamino)azetidin-1-yl)-3-fluorobenzonitrile]
0.262 | – | CN(C)C1CCN(c2cc(OC3CC3)c(C#N)c(-c3c(-c4ccc5c(=O)[nH]nc(CN)c5c4)cnn3C)c2F)C1 (centres unmarked) [Example 27, 2-(4-(4-(aminomethyl)-1-oxo-1,2-dihydrophthalazin-6-yl)-1-methyl-1H-pyrazol-5-yl)-6-cyclopropoxy-4-(3-(dimethylamino)pyrrolidin-1-yl)-3-fluorobenzonitrile]
0.084 | – | Cn1ncc(-c2ccc3c(=O)[nH]nc(CN)c3c2)c1-c1c(F)c(Cl)cc(N2CC(F)C2)c1C#N [Example 34, 2-(4-(4-(aminomethyl)-1-oxo-1,2-dihydrophthalazin-6-yl)-1-methyl-1H-pyrazol-5-yl)-4-chloro-3-fluoro-6-(3-fluoroazetidin-1-yl)benzonitrile]
0.093 | – | Cn1ncc(-c2ccc3c(=O)[nH]nc(CN)c3c2)c1-c1c(F)c(Cl)cc(N2CC3(C2)CC(F)(F)C3)c1C#N [Example 31, 2-(4-(4-(aminomethyl)-1-oxo-1,2-dihydrophthalazin-6-yl)-1-methyl-1H-pyrazol-5-yl)-4-chloro-6-(6,6-difluoro-2-azaspiro[3.3]heptan-2-yl)-3-fluorobenzonitrile]
0.922 | – | Cn1ncc(-c2ccc3c(=O)[nH]nc(CN)c3c2)c1-c1c(F)c(Cl)cc(N2CC(C)(O)C2)c1C#N [Example 35, 2-(4-(4-(aminomethyl)-1-oxo-1,2-dihydrophthalazin-6-yl)-1-methyl-1H-pyrazol-5-yl)-4-chloro-3-fluoro-6-(3-hydroxy-3-methylazetidin-1-yl)benzonitrile]
0.567 | – | Cn1ncc(-c2ccc3c(=O)[nH]nc(CN)c3c2)c1-c1c(F)c(N2CCC(O)C2)cc(OC2CC2)c1C#N (centres unmarked) [Example 25, 2-(4-(4-(aminomethyl)-1-oxo-1,2-dihydrophthalazin-6-yl)-1-methyl-1H-pyrazol-5-yl)-6-cyclopropoxy-3-fluoro-4-(3-hydroxypyrrolidin-1-yl)benzonitrile]
0.057 | – | Cn1ncc(-c2ccc3c(=O)[nH]nc(CN)c3c2)c1-c1c(F)c(Cl)cc(N2CCC2)c1C#N [Example 32, 2-(4-(4-(aminomethyl)-1-oxo-1,2-dihydrophthalazin-6-yl)-1-methyl-1H-pyrazol-5-yl)-6-(azetidin-1-yl)-4-chloro-3-fluorobenzonitrile]
